Entries after “also recorded” stand apart in the source; their conditions may differ. Read-outs that look alike come from different tables or passages of the source.
Tests used:
[1] = system: RPE-1; experiment: Resazurin assay, RPE-1 (Table 2); format: cell-based; conditions: Homo sapiens, resazurin assay (footnote a), read-out: IC50±SD RPE-1
Procedure: The resazurin reduction assay[34] was performed as described previously[38]. Briefly, cells were seeded onto a 96-well plate (2000 cells per well) in hexaplicate and the following day treated with the tested compounds (dissolved in DMSO as 50 mM stock) in a concentration range as indicated. After 24 h, 200 μl of culture medium of each well was exchanged for 100 μl of resazurin (stock 30 mg/ml; Sigma, St. Louis, MO) diluted 10 times in the culture medium, and the cells were incubated at 37 °C for 1–3 h. Reading of fluorescence was done using an Envision reader (PerkinElmer, Waltham, MA). Absolute values of fluorescence were related to the values of control/untreated cells. To estimate the cytotoxic concentration (half maximal inhibitory concentration, IC50), log-scale data were processed in GraphPad Prism software (La Jolla, CA) using nonlinear fit curve.

[2] = system: prostate carcinoma DU-145; experiment: Resazurin cytotoxicity assay, DU-145; conditions: Homo sapiens, DU-145, read-out: IC50±SD DU-145
Procedure: (§1) Furthermore, the cytotoxicity of compound 6 was compared to BP-1-102 (1) in human glioblastoma cell lines U-87 and T98 in concentration range 0–80 µM for 24 h using the crystal violet assay.
(§2) The resazurin reduction assay[34] was performed as described previously. Briefly, cells were seeded onto a 96-well plate (2000 cells per well) in hexaplicate and the following day treated with the tested compounds (dissolved in DMSO as 50 mM stock) in a concentration range as indicated. After 24 h, 200 μl of culture medium of each well was exchanged for 100 μl of resazurin (stock 30 mg/ml; Sigma, St. Louis, MO) diluted 10 times in the culture medium, and the cells were incubated at 37 °C for 1–3 h. Reading of fluorescence was done using an Envision reader (PerkinElmer, Waltham, MA). Absolute values of fluorescence were related to the values of control/untreated cells. To estimate the cytotoxic concentration (half maximal inhibitory concentration, IC50), log-scale data were processed in GraphPad Prism software (La Jolla, CA) using nonlinear fit curve.

[3] = system: mouse lung TC-1 cancer cell line; experiment: MTT cytotoxicity assay, TC-1; format: cell-based; conditions: for IC50: Mus musculus, read-out: IC50±SD TC-1; for cytotoxic effect in TC-1 (in words): 0–50 µM, 24 h
Procedure: (§3) Cells were seeded at the density of 2000 cells per well (96-well F microplates; Nunc, Roskilde, Denmark). The following day, the tested compounds were added. In the next 24 h, MTT (3-(4,5-dimethylthiazol-2-yl)-2,5-diphenyltetrazolium bromide) was added. After 6 h, DMF (dimethylformamide) was added, and after additional 24 h, absorbance was measured at 560 nm by a microplate reader.

[4] = system: STAT3 Y705 phosphorylation (pY705); experiment: STAT3 pY705 immunoblotting, MDA-MB-231; format: cell-based, human; conditions: MDA-MB-231, micromolar concentration range, 4 h
Procedure: The cells were exposed to BP-1-102 (1), compounds 6 and 14 in a micromolar concentration range for 4 h, and then the levels of STAT3 pY705 and total STAT3 were probed by immunoblotting with specific antibodies. […] It can be concluded that both novel compounds 6 and 14 manifested inhibitory effects on receptor-mediated phosphorylation of Y705 of STAT3 in both human and mouse cell lines.
Cells were washed three times with PBS, harvested into 95 °C-heated Laemmli SDS sample lysis buffer (2% SDS, 50 mM Tris–Cl, 10% glycerol in double distilled H2O) and sonicated at 3 μm amplitude for 3 × 10 or 3 × 30 s with 10 or 30 s cooling intervals in a Soniprep 150 (MSE, London, UK) or Diagenode Bioruptor 300 (Diagenode, Liege, Belgium) for human and murine cell lines, respectively. Concentration of proteins was estimated by the Pierce^TM BCA Protein Assay (Thermo Scientific, Waltham, MA). DTT (100 mM) and 0.01% bromophenol blue were added to the lysates before separation by SDS-PAGE (10% gels were used). Equal protein amounts (40 or 35 μg for human or murine cell lines, respectively) were loaded into each well. Proteins were electrotransferred onto a nitrocellulose membrane (Amersham^TM Protran^TM 0.45 µm NC, GE Healthcare, Chalfont St Giles, UK) using wet transfer and detected by specific antibodies (at 4 °C overnight) combined with HRP-conjugated secondary antibodies. Peroxidase activity was detected by Amersham^TM ECL Western Blotting Detection Reagents (GE Healthcare, Chalfont St Giles, UK). GAPDH was used as a loading control.

[5] = system: TC-1 cells; experiment: Annexin V / propidium iodide FACS, TC-1; conditions: TC-1, 24 h
Procedure: (§6) Cells were harvested by centrifugation, resuspended in cold PBS and again centrifuged. Cell pellets were then resuspended in Annexin V Binding Buffer (ApoFlowEx FITC Kit, ED7044, Exbio, Vestec, Czech Republic), annexin V-APC and PI were added to the cell pellet and mixed. Cells were incubated in the dark at room temperature for 15 min. After the incubation, cells were centrifuged, resuspended in Annexin V Binding Buffer and analysed by flow cytometry. Five thousand cells per sample were measured by analysing annexin V and PI using a BD FACSVerse™ flow cytometer (BD Biosciences, Franklin Lakes, NJ). Data were analysed using FlowJo 10 software (FlowJo LLC, Ashland, OR), and the percentage of viable (annexin V-negative/PI-negative) cells relative to control was plotted.

[6] = system: TRAMP-C2 cells; experiment: Annexin V / propidium iodide FACS, TRAMP-C2; format: cell-based, mouse; conditions: TRAMP-C2, 24 h
Procedure: as §6

[7] = system: mouse prostate TRAMP-C2 cancer cell line; experiment: MTT cytotoxicity assay, TRAMP-C2; format: cell-based; conditions: for IC50: Mus musculus, read-out: IC50±SD TRAMP-C2; for cytotoxic effect in TRAMP-C2 (in words): 0–50 µM, 24 h
Procedure: as §3

[8] = system: MDA-MB-231 cells; experiment: Annexin V / propidium iodide FACS, MDA-MB-231; format: cell-based, human; conditions: MDA-MB-231, 0, 5, 10, 20, 50 µM, 24 h
Procedure: as §6

[9] = system: human breast cancer MDA-MB-231 cell line; experiment: Resazurin cytotoxicity assay, MDA-MB-231; format: cell-based; conditions: for cytotoxic effect in MDA-MB-231 (in words): 0, 5, 10, 20, 50 µM
Procedure: (§4) The cells were treated with the compounds at concentrations 0, 5, 10, 20, and 50 µM for 24 h, and the cytotoxicity was estimated by the resazurin assay.
To estimate IC50 of 6 and 14, MDA-MB-231 cells were treated with 1 (0, 2, 5, 10, 15, 20, 25, 30, 40, and 50 µM), 6 (0, 5, 10, 20, 25, 30, 40, 50, 70, and 100 µM), and 14 (0, 20, 40, 50, 60, 70, 80, 100, 150, and 200 µM) for 24 h.
as §2

[10] = system: human breast adenocarcinoma MCF-7; experiment: Resazurin cytotoxicity assay, MCF-7; conditions: Homo sapiens, MCF7, read-out: IC50±SD MCF-7
Procedure: as §1, §2

[11] = system: human glioblastoma cell line T98; experiment: Crystal violet assay, T98; conditions: 0–80 µM, 24 h, compared to U-87 cells
Procedure: as §1
(§5) To determine cell viability by crystal violet assay, cells were seeded in 96-well plates at densities of 3000 (RPE-1), 5000 (U373 and T98-G), and 8000 (U-87 MG) cells per well. The next day the cells were treated with the tested compounds in triplicate in a concentration range as indicated. After 24 h, the cells in each well were washed twice with 150 µl PBS and then stained in 30 µl 0.5% w/v crystal violet in 20% methanol for 15 min. Plates were washed three times with double distilled H2O and left to dry overnight. Crystal violet was solubilised with 75 µl 0.2% Triton X-100 (Sigma, St. Louis, MO) in PBS for 15 min. Absorbance of crystal violet was measured at 595 nm using a microplate reader (Multiskan EX, Thermo Electron Corporation, Waltham, MA). Absorbance of the treated samples was expressed as a percentage of absorbance of untreated cells.

[12] = system: human immortalised retinal pigment epithelium RPE-1; experiment: Crystal violet assay, RPE-1; conditions: 0–50 µM, 24 h
Procedure: as §4, §5

[13] = system: human glioblastoma U373; experiment: Crystal violet assay, U373; conditions: 0–50 µM, 24 h
Procedure: as §4, §5

[14] = Homo sapiens, MDA-MB-231, 24 h, resazurin assay, 24 h, read-out: IC50±SD MDA-MB-231

Molecule CN(CC(=O)N(Cc1ccc(C2CCCCC2)cc1)c1ccc(C(=O)O)c(O)c1)S(=O)(=O)c1c(F)c(F)c(F)c(F)c1F [BP-1-102 (1), 4-(N-(4-Cyclohexylbenzyl)-2-(2,3,4,5,6-pentafluoro-N-methylphenylsulfonamido)acetamido)-2-hydroxybenzoic acid, reference compound] has an IC50 [1] of 13.9 ± 0.2 µM, an IC50 [2] of 18 ± 8.3 µM and an IC50 [3] of 7.8 ± 1.1 µM. For the same molecule, the “inhibition of constitutive STAT3 Y705 phosphorylation” value [4] was “inhibited constitutive STAT3 phosphorylation”, the “cytotoxicity by annexin V/PI staining and FACS” value [5] was “confirmed” and the “cytotoxicity by annexin V/PI staining and FACS” value [6] was “confirmed”. For the same molecule, the IC50 [7] was 7.9 ± 4.5 µM, the “cell death induction (annexin V/PI, FACS)” value [8] was “cell death induction was confirmed” and the IC50 ([9]; Homo sapiens, MDA-MB-231, 24 h, read-out: IC50±SD MDA-MB-231, resazurin assay, 24 h) was 15 µM. For the same molecule, the IC50 ([9]; read-out: IC50±SD MDA-MB-231, resazurin assay, 24 h) was 15 ± 3.7 µM.
With Cc1ccc(S(=O)(=O)N(C)CC(=O)N(Cc2ccccc2)c2ccc(C(=O)O)c(O)c2)cc1 [Compound 3, 4-(N-(Benzyl)-2-(N-methyl-N-(p-toluenesulfonyl))acetamido)-2-hydroxybenzoic acid] the “cytotoxic effect in MDA-MB-231 (in words)” value ([9]; 24 h, resazurin assay) was “lacking any significant cytotoxicity; also recorded: complete loss of cytotoxic activity”.
CN(CC(=O)N(Cc1ccccc1)c1ccc(C(=O)O)c(O)c1)S(=O)(=O)c1c(F)c(F)c(F)c(F)c1F [Compound 4, 4-(N-(Benzyl)-2-(2,3,4,5,6-pentafluoro-N-methylphenylsulfonamido)acetamido)-2-hydroxybenzoic acid] was tested, and the IC50 [1] was greater than 50 µM, the IC50 [2] was greater than 50 µM and the IC50 [10] was greater than 50 µM. The “cytotoxic effect in MDA-MB-231 (in words)” value ([9]; 24 h, resazurin assay) was “mild-to-negligible cytotoxicity” and the IC50 [9, 14] was greater than 50 µM.
In the case of Cc1ccc(S(=O)(=O)N(C)CC(=O)N(Cc2ccc(C(C)(C)C)cc2)c2ccc(C(=O)O)c(O)c2)cc1 [Compound 5, 4-(N-(4-tert-Butylbenzyl)-2-(N-methyl-N-(p-toluenesulfonyl))acetamido)-2-hydroxybenzoic acid], the “cytotoxic effect in MDA-MB-231 (in words)” value ([9]; 24 h, resazurin assay) is reported as “mild-to-negligible cytotoxicity; also recorded: complete loss of cytotoxic activity”.
With CN(CC(=O)N(Cc1ccc(C(C)(C)C)cc1)c1ccc(C(=O)O)c(O)c1)S(=O)(=O)c1c(F)c(F)c(F)c(F)c1F [Compound 6, 4-(N-(4-tert-Butylbenzyl)-2-(2,3,4,5,6-pentafluoro-N-methylphenylsulfonamido)acetamido)-2-hydroxybenzoic acid] the IC50 [1] was 24.5 ± 2.6 µM, the IC50 [2] was 34 ± 2.6 µM and the “cytotoxicity in T98 (in words)” value [11] was “remarkable resistance”. The “cytotoxic effect in TC-1 (in words)” value [3] was “cytotoxic activity comparable to BP-1-102 (1)”, the IC50 [3] was 6.2 ± 1.1 µM and the “inhibition of constitutive STAT3 Y705 phosphorylation” value [4] was “inhibited constitutive STAT3 phosphorylation”. For the same molecule, the “cytotoxic activity in RPE-1 (in words)” value [12] was “concentration-dependent cytotoxic activity”, the IC50 [10] was 19.6 ± 3.6 µM and the “cytotoxicity by annexin V/PI staining and FACS” value [5] was “confirmed”. The “cytotoxicity by annexin V/PI staining and FACS” value [6] was “confirmed”, the “cytotoxic effect in TRAMP-C2 (in words)” value ([7]; MTT assay) was “cytotoxic activity comparable to BP-1-102 (1)” and the IC50 ([7]; MTT assay) was 14.5 ± 13.4 µM. For the same molecule, the “cell death induction (annexin V/PI, FACS)” value [8] was “cell death induction was confirmed”, the “cytotoxic activity in U373 (in words)” value [13] was “concentration-dependent cytotoxic activity” and the IC50 [9, 14] was 26.2 µM. For the same molecule, the “concentration from which the compound was cytotoxic” value ([9]; MDA-MB-231, 24 h, resazurin assay) was 10 µM and the IC50 ([9]; resazurin assay, 24 h, read-out: IC50±SD MDA-MB-231) was 26.2 ± 5.6 µM.
For COc1ccc(CN(C(=O)CN(C)S(=O)(=O)c2c(F)cc(F)cc2F)c2ccc(C(=O)O)c(O)c2)cc1 [Compound 7, 4-(N-(4-Methoxybenzyl)-2-(2,4,6-trifluoro-N-methylphenylsulfonamido)acetamido)-2-hydroxybenzoic acid], the “cytotoxic effect in MDA-MB-231 (in words)” value ([9]; 24 h, resazurin assay) was “lacking any significant cytotoxicity; also recorded: complete loss of cytotoxic activity”.
COc1ccc(CN(C(=O)CN(C)S(=O)(=O)c2c(F)c(F)c(F)c(F)c2F)c2ccc(C(=O)O)c(O)c2)cc1 [Compound 8, 4-(N-(4-Methoxybenzyl)-2-(2,3,4,5,6-pentafluoro-N-methylphenylsulfonamido)acetamido)-2-hydroxybenzoic acid] was tested, and the “cytotoxic effect in TC-1 (in words)” value [3] was “mild cytotoxic effect; also recorded: mild cytotoxicity”, the “cytotoxic effect in TRAMP-C2 (in words)” value ([7]; MTT assay) was “mild cytotoxic effect; also recorded: mild cytotoxicity” and the “cytotoxic activity in U373 (in words)” value [13] was “no cytotoxic activity”. The “cytotoxic effect in MDA-MB-231 (in words)” value ([9]; 24 h, resazurin assay) was “lacking any significant cytotoxicity; also recorded: no cytotoxic activity”.
For CN(CC(=O)N(Cc1ccc(C(F)(F)F)cc1)c1ccc(C(=O)O)c(O)c1)S(=O)(=O)c1ccccc1 [Compound 9, 4-(N-(4-Trifluoromethylbenzyl)-2-(N-methylphenylsulfonyl)acetamido)-2-hydroxybenzoic acid], the “cytotoxic effect in MDA-MB-231 (in words)” value ([9]; 24 h, resazurin assay) was “complete loss of cytotoxic activity”.

— PMC7808747, “Design, synthesis, and in vitro evaluation of BP-1-102 analogs with modified hydrophobic fragments for STAT3 inhibition” (Journal of Enzyme Inhibition and Medicinal Chemistry, 2021)
